# Test results reported in EP2116263A1, “Reversibly light-switchable drug-conjugates” (priority 2008, dated 2009).
# Entries after “also recorded” stand apart in the source; their conditions may differ. Where two headings read alike, the source gives them in different places.
# Key:
# [1] = biological target: calcineurin (CaN) phosphatase activity (Homo sapiens, UniProt P62937+P63098+Q08209); assay: Calcineurin (CaN) phosphatase activity inhibition assay in the presence of Cyp18; settings: for change of CaN inhibition between cis and trans forms / upon light irradiation: in the presence of Cyp18, absence of SA
# Description: The reaction mixture containing 700 µM peptide, 0.2 µM cAMP, 100 µCi[γ-^33P]ATP and 10 kU PKA in a final volume of 100 µl in the buffer (containing 20 mM MES, pH 6.5, 0.4 mM EDTA, 0.2 mM EGTA, 50 µM CaCl2 and 2 mM MgCl2) was incubated for one hour at 30 °C. The phosphorylated peptides were separated from unincorporated labeled ATP by 1 ml RP-C2 clean up extraction column (Amchro, Sulzbach, Germany). The eluted peptide (with 70% acetonitrile) was lyophilized and reconstituted with de-ionized water.
# The scintillation proximity concept has been applied for measuring calcineurin activity using ScintiPlate wells coated with streptavidin. […] Biotinylated [γ-^33P] RII peptide was added to a final concentration of 100 nM and the total assay volume is 100 µl. After incubation at 30 °C for 30 min, 90 µl of the reaction mixture was transferred to the ScintiPlate well coated with streptavidin. The streptavidin immobilizes the biotinylated RII peptide on the wells. After 20 min at 22 °C the well was washed once with water and the RII associated [γ-^33P] was measured in the top-counter MicroBeta (Wallac, Turku, Finland).
# [2] = biological target: Recombinant hCyp18 PPIase activity (Homo sapiens, UniProt P62937); assay: Cyp18 PPIase activity, protease coupled assay; assay type: biochemical
# Description: The PPIase activity was measured at 7 °C with a protease coupled assay on a Hewlett-Packard 8452a diode array spectrophotometer (Fischer et al., 1984). To 1220 µl Hepes buffer pH 7.8, Cyp18 and inhibitor of desired concentration are added. After 10 min of incubation, protease and substrate were added. The final substrate concentration is 40 µM in 1280 µl. The cis/trans isomerization was monitor at 390 nm with 510 nm as a reference. The rate is calculated according to first order reaction. Recombinant hCyp18 PPIase activity was measured with the peptide Suc-Ala-Phe-Pro-Phe-NH-Np as substrate. The substrate was dissolved in DMSO (10 mg/ml). α-Chymotrypsin was used as auxiliary protease. The residual enzymatic activity was plotted versus the inhibitor concentration and used for calculating the inhibitor constants Ki as described before (Schutkowski et al., 1995).
# PPIase activities are measured with a protease coupled assay, using Suc-Ala-Phe-Pro-Phe-NH-Np as substrate and chymotrypsin as auxiliary protease, in 35 mM HEPES buffer pH 7.8, at 7 °C. Cyp18 concentration is 2.5 nM. […] Irradiations have been performed with light of 740 nm for 45 min. […]
# CaN and Cyp18 = assay: Cross-linking (BS3) of CaN and Cyp18 in treated Jurkat cells, anti-CaN blot; assay type: cell-based, human
# Description: Cells were lysed and the clear supernatants were incubated with calmodulin sepharose. Cross-linking reagent BS^3 was added to the EDTA eluates. After TCA precipitation, the samples were separated by SDS-PAGE and probed with anti-CaN antibody and detected by enhanced chemiluminescent reaction.
# [3] = biological target: Cyp18/CsA-AB-CsA/Cyp18 tertiary complex (Homo sapiens, UniProt P62937); assay: Coprecipitation of His4-Cyp18 with GST-Cyp18 matrix on glutathione-Sepharose; assay type: binding
# Sequence of Cyp18/CsA-AB-CsA/Cyp18 tertiary complex (P62937 whole entry, one chain of several): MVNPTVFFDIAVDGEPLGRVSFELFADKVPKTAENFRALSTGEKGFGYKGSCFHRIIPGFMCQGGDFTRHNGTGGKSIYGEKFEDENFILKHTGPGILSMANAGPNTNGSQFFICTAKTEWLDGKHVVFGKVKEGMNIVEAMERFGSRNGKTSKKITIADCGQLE
# Description: The proteins were eluted by boiling with sample buffer and separated by SDS-PAGE, transferred onto nitrocellulose membrane and probed with anti-His and anti-GST antibodies.
# Sequence of Recombinant hCyp18 PPIase activity (P62937 whole entry): as the sequence (P62937 whole entry, one chain of several) above
Structure (SMILES),trans/cis difference of activity in CaN inhibition assay ([1]; absence of SA),change of CaN inhibition between cis and trans forms / upon light irradiation [1],"IC50, CaN inhibition ([1]; non-irradiated (trans), in the presence of SA)",inhibition at 10 µM ([1]; read-out: CaN inhibition) [%],"IC50 ([2]; IC50, inhibition of Cyp18 PPIase activity, cis isomer bound to the borrowed protein SA (4 equivalents)) [nM]","IC50 ([2]; IC50, inhibition of Cyp18 PPIase activity, irradiated, cis, absence of SA, Cyp18 2.5 nM, 7 °C) [nM]","IC50 ([2]; IC50, inhibition of Cyp18 PPIase activity, non-irradiated, trans, absence of SA, Cyp18 2.5 nM, 7 °C) [nM]","IC50 ([2]; IC50, inhibition of Cyp18 PPIase activity, trans isomer bound to the borrowed protein SA (4 equivalents)) [nM]","cross-linking between CaN and Cyp18 (CaN and Cyp18; absence of SA, conjugate in photoswitched cis form)","cross-linked CaN-Cyp18-SA (CaN and Cyp18; cells transfected with SA, cis)","cross-linking between CaN and Cyp18 (CaN and Cyp18; cells transfected with SA, non-irradiated trans)","interaction of the Cyp18-trans-CsA-AB-Biotin-SA complex with CaN (CaN and Cyp18; cells transfected with SA, trans)","increase of inhibitory potency towards the PPIase activity of Cyp18, cis compared to trans ([2]; irradiated cis vs non-irradiated trans) [fold]",Cyp18 inhibitory profile after thermal cis to trans isomerization ([2]; irradiated sample kept in darkness overnight at room temperature),"IC50 ([2]; irradiated, cis, absence of SA, Cyp18 2.5 nM, 7 °C, read-out: IC50, inhibition of Cyp18 PPIase activity) [nM]","IC50 ([2]; non-irradiated, trans, absence of SA, Cyp18 2.5 nM, 7 °C, read-out: IC50, inhibition of Cyp18 PPIase activity) [nM]",coprecipitation of His4-Cyp18 with GST-Cyp18 ([3]; photoswitched cis (irradiated)),coprecipitation of His4-Cyp18 with GST-Cyp18 ([3]; trans (non-irradiated))
C/C=C/C[C@@H](C)[C@@H](O)[C@H]1C(=O)N[C@@H](CC)C(=O)N(C)CC(=O)N(C)[C@@H](CC(C)C)C(=O)N[C@@H](C(C)C)C(=O)N(C)[C@@H](CC(C)C)C(=O)N[C@@H](C)C(=O)N[C@H](COCC(=O)Nc2ccc(N=Nc3ccc(NC(=O)CCCC[C@@H]4SC[C@@H]5NC(=O)N[C@@H]54)cc3)cc2)C(=O)N(C)[C@@H](CC(C)C)C(=O)N(C)[C@@H](CC(C)C)C(=O)N(C)[C@@H](C(C)C)C(=O)N1C [CsA-AB-Biotin],1.4,only a minor change,too high to be determined precisely,30,4.45 ± 0.55,2.21 ± 0.02,2.96 ± 0.68,9.37 ± 0.75,intensive cross-linking,detected only in sample treated with cis-CsA-AB-Biotin; also recorded: can only be detected in samples treated with cis-CsA-AB-Biotin,weakest cross-linking effect,does not interact with CaN,–,–,–,–,–,–
C/C=C/C[C@@H](C)[C@@H](O)[C@H]1C(=O)N[C@@H](CC)C(=O)N(C)CC(=O)N(C)[C@@H](CC(C)C)C(=O)N[C@@H](C(C)C)C(=O)N(C)[C@@H](CC(C)C)C(=O)N[C@@H](C)C(=O)N[C@H](COCC(=O)Nc2ccc(N=Nc3ccc(NC(=O)COC[C@H]4NC(=O)[C@H](C)NC(=O)[C@H](CC(C)C)N(C)C(=O)[C@H](C(C)C)NC(=O)[C@H](CC(C)C)N(C)C(=O)CN(C)C(=O)[C@H](CC)NC(=O)[C@H]([C@H](O)[C@H](C)C/C=C/C)N(C)C(=O)[C@H](C(C)C)N(C)C(=O)[C@H](CC(C)C)N(C)C(=O)[C@H](CC(C)C)N(C)C4=O)cc3)cc2)C(=O)N(C)[C@@H](CC(C)C)C(=O)N(C)[C@@H](CC(C)C)C(=O)N(C)[C@@H](C(C)C)C(=O)N1C [CsA-AB-CsA],–,significant increase,–,–,–,–,–,–,–,–,–,–,7,reversed,30 ± 3,206 ± 22,coprecipitated together with GST-Cyp18,only a minor amount
